Article PMC5537602, “TRPA1 channel mediates organophosphate-induced delayed neuropathy” (Cell Discovery, 2017)
Like-named read-outs stand apart in the source and are kept apart here.

Experiments:
[1] = system: hTRPA1 carrying single mutations (C414A, C421A, C621A, C641A, C665A or K710R); test: Whole-cell patch-clamp of mutant hTRPA1 channels; format: cell-based, human; details: 30 μM flufenamic acid
Description: (§1) Human embryonic kidney 293 (HEK293) cells were cultured in DMEM containing 10% (vol/vol) heat-inactivated fetal bovine serum, 100 units ml^−1 penicillin–streptomycin and 2 mM L-glutamine at 37 °C in a humidity-controlled sterile incubator with 5% CO2. All cell culture reagents were purchased from Life Technologies. HEK293 cells were transfected transiently with the corresponding plasmids using lipofectamine 2000 (Life Technologies). Transfection efficiency was monitored by co-transfecting EGFP plasmid which codes for the enhanced green fluorescent protein. Electrophysiological recordings were performed between 24 and 36 h after transfection.
Whole-cell patch-clamp recordings in DRG neurons (small diameter, […]) and HEK293 cells were operated at room temperature (23–25 °C) using EPC-10 amplifier and Patch Master Software (HEKA). […] Currents were sampled at 10 kHz and low-pass filtered at 2.9 kHz. The internal solution was as follows (in mM): 140 CsCl, 10 HEPES, 5 EGTA, 0.1 CaCl2 and 1 MgCl2, with pH adjusted to 7.2 by CsOH and osmolarity 295–300 mOsm. […] TRPA1 currents development was monitored with repetitive injections of 300 ms duration voltage ramps from −100 to +100 mV every 2 s and the holding potential was set to 0 mV for 50 ms, existing in both sides of the voltage ramp. […]

[2] = system: hens; format: in vivo, hen
Description: The chosen adult Hyline Brown hens were raised individually in stainless steel wire cages. After 7 days of acclimatization, the chosen hens were randomly divided into groups (n=6–10 for each group). The hens in the delayed neuropathy groups were administered a single dose of 750 mg kg^−1 TOCP and repeated doses of 75 mg kg^−1 malathion by gavage. TOCP and malathion were dissolved in corn oil and administered at 0.65 ml kg^−1. In the HC030031 treatment groups, 100 mg kg^−1 HC030031 was administered by gavage daily beginning at day 0 or day 11. All hens were examined daily for signs of delayed neurotoxicity. A five-point graded scale was used to describe the clinical symptoms of delayed neuropathy, with 0 indicating normal ambulation; (1) suspected ataxia (lack of strength in the legs and tottering); (2) mild ataxia (slow, clumsy and unsteady gait); (3) gross ataxia (waddling gait and staggering and falling despite being active); (4) mild paralysis (typical paralytic posture and lame appearance); and (5) complete paralysis (unable to maintain posture, stand up or move at all), as described previously.

[3] = target: T1, cTRPA1 (Gallus gallus, UniProt W8VTH6); test: Whole-cell patch-clamp, HEK293 cells expressing cTRPA1; format: cell-based, chicken
T1 sequence (W8VTH6 1-1126): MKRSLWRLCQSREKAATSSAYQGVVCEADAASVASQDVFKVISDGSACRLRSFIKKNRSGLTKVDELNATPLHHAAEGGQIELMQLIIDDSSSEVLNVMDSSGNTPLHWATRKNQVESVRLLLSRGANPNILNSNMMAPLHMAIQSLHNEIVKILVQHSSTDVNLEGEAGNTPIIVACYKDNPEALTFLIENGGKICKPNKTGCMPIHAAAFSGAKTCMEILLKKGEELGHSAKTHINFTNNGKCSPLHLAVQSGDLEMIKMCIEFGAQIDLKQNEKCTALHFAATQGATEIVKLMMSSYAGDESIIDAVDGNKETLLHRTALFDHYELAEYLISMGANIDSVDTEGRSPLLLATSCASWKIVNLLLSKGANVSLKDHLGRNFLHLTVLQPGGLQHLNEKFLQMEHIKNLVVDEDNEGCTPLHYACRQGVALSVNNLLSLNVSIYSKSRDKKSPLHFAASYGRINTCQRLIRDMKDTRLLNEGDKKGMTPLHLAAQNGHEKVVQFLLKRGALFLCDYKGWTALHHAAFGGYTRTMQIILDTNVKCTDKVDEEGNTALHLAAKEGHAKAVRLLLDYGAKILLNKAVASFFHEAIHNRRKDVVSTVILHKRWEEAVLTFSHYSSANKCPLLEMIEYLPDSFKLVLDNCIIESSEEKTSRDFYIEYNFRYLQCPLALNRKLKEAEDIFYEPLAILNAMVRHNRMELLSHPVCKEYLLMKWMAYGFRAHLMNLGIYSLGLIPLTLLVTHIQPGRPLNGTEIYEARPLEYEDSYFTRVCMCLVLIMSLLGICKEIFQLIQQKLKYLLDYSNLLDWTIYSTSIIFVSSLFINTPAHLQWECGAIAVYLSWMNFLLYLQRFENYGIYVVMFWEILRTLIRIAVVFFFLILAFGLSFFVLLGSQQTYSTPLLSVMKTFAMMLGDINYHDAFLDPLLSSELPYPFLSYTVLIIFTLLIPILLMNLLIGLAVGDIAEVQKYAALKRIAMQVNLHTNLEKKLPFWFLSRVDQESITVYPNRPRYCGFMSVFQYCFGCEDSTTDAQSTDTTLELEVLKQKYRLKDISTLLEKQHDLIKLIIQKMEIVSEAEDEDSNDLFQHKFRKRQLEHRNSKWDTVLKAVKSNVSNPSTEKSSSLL
Description: All cell culture reagents were purchased from Life Technologies. HEK293 cells were transfected transiently with the corresponding plasmids using lipofectamine 2000 (Life Technologies). Transfection efficiency was monitored by co-transfecting EGFP plasmid which codes for the enhanced green fluorescent protein. Electrophysiological recordings were performed between 24 and 36 h after transfection.
Whole-cell patch-clamp recordings in DRG neurons (small diameter, […]) and HEK293 cells were operated at room temperature (23–25 °C) using EPC-10 amplifier and Patch Master Software (HEKA). […] Currents were sampled at 10 kHz and low-pass filtered at 2.9 kHz. […] The calcium-free external solution contained (in mM) 140 NaCl, 5 KCl, 0.5 EGTA, 1 MgCl2, 10 Glucose and 10 HEPES, with pH adjusted to 7.4 by NaOH and osmolarity 300–310 mOsm. The 0.5 mM EGTA was replaced by 2 mM CaCl2 for the recordings in DRG neurons. TRPA1 currents development was monitored with repetitive injections of 300 ms duration voltage ramps from −100 to +100 mV every 2 s and the holding potential was set to 0 mV for 50 ms, existing in both sides of the voltage ramp. To record inward currents in DRG neurons, we conducted voltage clamp at holding membrane potential of −70 mV. Solutions were switched using a gravity-fed continuous focal perfusion system.

[4] = system: hens; test: Transmission electron microscopy of hen spinal cord and sciatic nerve; format: in vivo; details: 21 days after exposure
Description: For hens, the animals were anesthetized with sodium pentobarbital (100 mg kg^−1) and killed 21 days after exposure to TOCP and malathion. They were then perfused with normal saline followed immediately by 4% paraformaldehyde. The lumbar spinal cord at approximately the L2-L3 level and the sciatic nerve of the left leg were removed and fixed by immersion in ice-cold 2.5% glutaraldehyde. Subsequently, the samples were post-fixed in 1% OsO4 for 1 h, dehydrated with the ethanol series, and embedded in epon resin. Sixty-nanometer ultra-thin sections were double stained with lead citrate and uranyl acetate and examined with an electron microscopy.

[5] = target: T2, rTRPA1 (Rattus norvegicus, UniProt Q6RI86); test: Whole-cell patch-clamp, HEK293 cells expressing rTRPA1; format: cell-based; details: 30 μM, calcium-free external solution
T2 construct: expressed in transfected cells; host or cells: HEK293, transient
Description: as §1
(§2) Whole-cell patch-clamp recordings in DRG neurons (small diameter, […]) and HEK293 cells were operated at room temperature (23–25 °C) using EPC-10 amplifier and Patch Master Software (HEKA). […] Currents were sampled at 10 kHz and low-pass filtered at 2.9 kHz. The internal solution was as follows (in mM): 140 CsCl, 10 HEPES, 5 EGTA, 0.1 CaCl2 and 1 MgCl2, with pH adjusted to 7.2 by CsOH and osmolarity 295–300 mOsm. The calcium-free external solution contained (in mM) 140 NaCl, 5 KCl, 0.5 EGTA, 1 MgCl2, 10 Glucose and 10 HEPES, with pH adjusted to 7.4 by NaOH and osmolarity 300–310 mOsm. The 0.5 mM EGTA was replaced by 2 mM CaCl2 for the recordings in DRG neurons. TRPA1 currents development was monitored with repetitive injections of 300 ms duration voltage ramps from −100 to +100 mV every 2 s and the holding potential was set to 0 mV for 50 ms, existing in both sides of the voltage ramp. To record inward currents in DRG neurons, we conducted voltage clamp at holding membrane potential of −70 mV. Solutions were switched using a gravity-fed continuous focal perfusion system.

[6] = target: mTRPA1 (Mus musculus, UniProt Q8BLA8); test: Whole-cell patch-clamp, HEK293 cells expressing mTRPA1; format: cell-based; design: expressed in transfected cells; host or cells: HEK293; details: 30 μM, calcium-free external solution
Description: as §1, §2

[7] = target: T3, hTRPA1 (Homo sapiens, UniProt O75762); test: cell-based; format: cell-based; details: 30 μM, calcium-free external solution
T3 construct: expressed in transfected cells; host or cells: HEK293, transient, EGFP plasmid co-transfected
Description: as §1, §2

[8] = system: mice; test: Behavioral testing of mice (paw-licking time after intraplantar injection); format: in vivo, mouse; details: WT mice; AITC 10 μl 5%, malathion 10 μl 30%, intraplantar
Description: The chosen mice were allowed to acclimate to the experimental environment for at least 2 h before testing. Intraplantar injection of 5% AITC and 30% malathion (10 μl) was achieved using separate injectors. Spontaneous pain evoked by the compounds was assessed by measuring the time (s) the mice spent on licking. For the HC030031 groups, 200 mg kg^−1 HC030031 was intragastrically administered, and then the test was conducted after 1 h. The testing phase was divided into two parts: 0–10 min and 11–60 min.

[9] = system: mouse DRG neurons; test: Single-cell calcium imaging (Fura-2/AM) of isolated DRG neurons; format: cell-based
Description: (§3) DRG neurons were isolated from young C57 BL/6 mice (4–5 weeks). The sections of thoracic and lumbar DRG neurons were rapidly isolated in calcium and magnesium-free PBS with low temperature conditions (ice-bath environment). The isolated tissues were cut into pieces with scissor and incubated for 30 min with 0.1% collagenase and 0.025% trypsin which were diluted by DMEM-F12 at 37 °C. After digestion, neurons were gently dissociated using Pasteur pipettes and then plated onto poly-D-lysine pre-coated glass cover slips. DRG neurons were cultured for 24 h before use.
Calcium influx signals were monitored using the ratio metric fluorescent indicator dye Fura-2/AM at room temperature (23–25 °C). Cells were incubated with 2 μM Fura-2/AM, which was generated by diluting the stock solution with normal external solution, for 30 min at 37 °C. […] The maximum excitation wave length of Fura-2/AM was changed to 340 nm from 380 nm when combined with calcium ions. Fura-2/AM was excited at 340 and 380 nm with a rapid switching monochromator obtained from TILL Photonics, and the mean fluorescence intensity ratios (F340/F380) reflected real-time changes in the concentration of intracellular free calcium ions. The external solution used in the DRG whole-cell patch-clamp recordings was also used for calcium imaging. Solutions were switched using a gravity-fed continuous focal perfusion system.

[10] = system: mice; test: Transmission electron microscopy of local nerve fibers in mice; format: in vivo, mouse; details: WT mice; plantar injection, 5% AITC or 30% malathion
Description: For mice, subcutaneous tissue from the site of exposure was removed and fixed by immediate immersion in ice-cold 2.5% glutaraldehyde. Subsequently, the samples were post-fixed in 1% OsO4 for 1 h, dehydrated with an ethanol series and embedded in epon resin. Sixty-nanometer ultra-thin sections were double stained with lead citrate and uranyl acetate and examined using an electron microscopy.

[11] = system: mouse DRG neurons; test: Whole-cell patch-clamp of small-diameter DRG neurons; format: cell-based
Description: as §3, §2

T3 sequence (O75762 whole entry): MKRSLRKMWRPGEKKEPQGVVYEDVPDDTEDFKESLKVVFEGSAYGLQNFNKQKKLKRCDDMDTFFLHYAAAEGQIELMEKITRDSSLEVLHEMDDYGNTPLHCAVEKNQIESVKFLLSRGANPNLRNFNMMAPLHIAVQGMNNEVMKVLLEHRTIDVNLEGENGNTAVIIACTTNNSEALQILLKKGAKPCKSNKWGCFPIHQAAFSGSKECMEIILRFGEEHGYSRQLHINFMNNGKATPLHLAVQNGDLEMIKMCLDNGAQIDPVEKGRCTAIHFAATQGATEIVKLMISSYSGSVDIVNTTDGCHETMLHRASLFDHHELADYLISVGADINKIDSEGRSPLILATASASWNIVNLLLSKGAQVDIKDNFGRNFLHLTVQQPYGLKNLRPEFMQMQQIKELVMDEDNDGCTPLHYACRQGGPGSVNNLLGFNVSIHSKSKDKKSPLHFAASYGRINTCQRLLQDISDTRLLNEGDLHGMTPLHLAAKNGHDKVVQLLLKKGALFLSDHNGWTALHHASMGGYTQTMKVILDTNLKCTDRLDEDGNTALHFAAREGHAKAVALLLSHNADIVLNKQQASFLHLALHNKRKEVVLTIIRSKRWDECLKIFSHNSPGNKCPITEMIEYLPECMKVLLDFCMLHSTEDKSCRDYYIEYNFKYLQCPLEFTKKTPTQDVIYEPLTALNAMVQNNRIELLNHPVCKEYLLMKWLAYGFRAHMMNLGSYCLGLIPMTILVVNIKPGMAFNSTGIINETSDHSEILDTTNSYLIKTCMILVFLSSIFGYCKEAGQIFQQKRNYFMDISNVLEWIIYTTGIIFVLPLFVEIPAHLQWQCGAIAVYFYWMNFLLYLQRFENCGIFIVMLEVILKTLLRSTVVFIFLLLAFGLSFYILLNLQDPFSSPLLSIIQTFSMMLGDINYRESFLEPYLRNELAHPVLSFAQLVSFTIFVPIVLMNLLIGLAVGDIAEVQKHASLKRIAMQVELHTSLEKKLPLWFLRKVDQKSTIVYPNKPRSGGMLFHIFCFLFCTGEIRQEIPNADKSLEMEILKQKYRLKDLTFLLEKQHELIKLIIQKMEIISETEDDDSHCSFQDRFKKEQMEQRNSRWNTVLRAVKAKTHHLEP
T2 sequence (Q6RI86 whole entry): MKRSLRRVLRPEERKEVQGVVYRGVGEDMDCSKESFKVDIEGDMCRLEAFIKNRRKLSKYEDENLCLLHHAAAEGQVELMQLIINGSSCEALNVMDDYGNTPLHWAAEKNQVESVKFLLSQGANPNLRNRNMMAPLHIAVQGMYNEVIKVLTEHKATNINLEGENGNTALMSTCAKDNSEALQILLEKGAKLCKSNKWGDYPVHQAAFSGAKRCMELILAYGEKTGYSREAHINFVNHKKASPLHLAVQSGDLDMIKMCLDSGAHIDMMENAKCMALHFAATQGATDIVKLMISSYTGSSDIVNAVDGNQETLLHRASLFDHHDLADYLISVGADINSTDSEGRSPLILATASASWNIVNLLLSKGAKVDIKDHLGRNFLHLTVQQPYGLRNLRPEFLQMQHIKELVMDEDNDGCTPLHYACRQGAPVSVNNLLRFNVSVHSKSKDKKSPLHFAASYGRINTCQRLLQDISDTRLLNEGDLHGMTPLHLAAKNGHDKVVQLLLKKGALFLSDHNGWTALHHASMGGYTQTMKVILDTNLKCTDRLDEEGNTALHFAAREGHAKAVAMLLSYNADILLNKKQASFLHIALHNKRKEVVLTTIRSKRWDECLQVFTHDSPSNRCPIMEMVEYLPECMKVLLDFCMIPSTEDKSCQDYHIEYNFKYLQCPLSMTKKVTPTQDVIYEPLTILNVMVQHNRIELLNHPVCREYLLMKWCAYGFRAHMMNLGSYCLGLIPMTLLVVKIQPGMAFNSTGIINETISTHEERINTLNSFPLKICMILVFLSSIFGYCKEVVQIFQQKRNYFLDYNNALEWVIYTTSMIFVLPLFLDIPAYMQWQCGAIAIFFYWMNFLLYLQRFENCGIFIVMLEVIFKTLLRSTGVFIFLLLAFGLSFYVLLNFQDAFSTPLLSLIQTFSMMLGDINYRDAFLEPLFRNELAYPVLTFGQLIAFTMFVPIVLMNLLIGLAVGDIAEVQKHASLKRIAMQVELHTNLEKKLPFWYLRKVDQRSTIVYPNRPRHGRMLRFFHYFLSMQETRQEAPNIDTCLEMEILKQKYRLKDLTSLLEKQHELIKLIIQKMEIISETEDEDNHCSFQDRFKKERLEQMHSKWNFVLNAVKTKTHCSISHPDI
Sequence of mTRPA1 (Q8BLA8 whole entry): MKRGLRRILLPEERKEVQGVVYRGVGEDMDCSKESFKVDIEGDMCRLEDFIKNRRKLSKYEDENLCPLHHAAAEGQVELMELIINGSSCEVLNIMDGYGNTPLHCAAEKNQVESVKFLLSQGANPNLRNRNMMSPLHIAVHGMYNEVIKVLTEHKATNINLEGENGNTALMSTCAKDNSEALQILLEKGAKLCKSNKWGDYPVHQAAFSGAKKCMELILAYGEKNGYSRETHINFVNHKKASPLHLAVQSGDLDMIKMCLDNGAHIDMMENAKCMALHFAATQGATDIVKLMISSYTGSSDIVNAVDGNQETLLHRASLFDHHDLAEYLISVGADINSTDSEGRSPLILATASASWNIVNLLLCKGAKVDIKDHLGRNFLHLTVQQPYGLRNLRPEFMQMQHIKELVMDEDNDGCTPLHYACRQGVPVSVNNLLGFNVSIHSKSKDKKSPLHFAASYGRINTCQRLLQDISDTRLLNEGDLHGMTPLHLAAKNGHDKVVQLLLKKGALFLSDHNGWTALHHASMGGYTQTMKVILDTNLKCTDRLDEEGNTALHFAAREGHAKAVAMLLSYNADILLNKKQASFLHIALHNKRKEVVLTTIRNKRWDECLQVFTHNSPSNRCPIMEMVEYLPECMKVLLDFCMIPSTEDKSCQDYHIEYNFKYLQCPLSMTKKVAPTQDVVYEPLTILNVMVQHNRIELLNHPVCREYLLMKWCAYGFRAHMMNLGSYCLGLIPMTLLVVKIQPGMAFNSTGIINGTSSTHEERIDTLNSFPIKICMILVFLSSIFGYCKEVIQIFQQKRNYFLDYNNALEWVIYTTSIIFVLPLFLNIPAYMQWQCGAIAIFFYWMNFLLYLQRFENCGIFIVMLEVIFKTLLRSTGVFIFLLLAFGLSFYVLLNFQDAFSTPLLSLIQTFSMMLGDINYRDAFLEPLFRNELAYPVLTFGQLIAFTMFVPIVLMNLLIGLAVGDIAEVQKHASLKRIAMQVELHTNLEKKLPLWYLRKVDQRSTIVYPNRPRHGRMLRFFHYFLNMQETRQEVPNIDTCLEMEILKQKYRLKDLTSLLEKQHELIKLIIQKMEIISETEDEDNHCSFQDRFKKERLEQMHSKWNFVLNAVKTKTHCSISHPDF

`O=C(O)c1ccccc1Nc1cccc(C(F)(F)F)c1` [flufenamic acid] was tested, and the “role of the mutated residues (except C414) for activation of TRPA1” value [1] was “not essential”.

In the case of `CNCC[C@H](Oc1cccc2ccccc12)c1cccs1` [duloxetine], the “effect on TOCP-induced symptoms (OPIDN scores)” value ([2]; in vivo) is reported as “significantly alleviated” and the IC50 ([3]; manual whole-cell patch-clamp, TOCP-induced currents, read-out: IC50 on cTRPA1 channels) is reported as 4.69 ± 1.4 µM.

With `Cc1ccccc1OP(=O)(Oc1ccccc1C)Oc1ccccc1C` [TOCP, tri-ortho-cresyl phosphate] the “damage of spinal cord and sciatic nerve (TEM)” value [4] was “severely damaged the spinal cord and sciatic nerve”, the “clinical symptoms of delayed neuropathy” value ([2]; hens, TOCP single dose 750 mg kg−1, end of the 21-day period) was “completely paralyzed” and the EC50 [3] was 15.8 ± 1.37 µM. The “activation of cTRPA1 whole-cell currents” value ([3]; calcium-free external solution) was “effectively activate”, the “activation of rTRPA1 whole-cell currents” value [5] was “effectively activate” and the “activation of mTRPA1 whole-cell currents” value [6] was “effectively activate”. For the same compound, the “activation of hTRPA1 whole-cell currents” value [7] was “effectively activate”.

For `C=CCN=C=S` [AITC, allyl isothiocyanate], the “nocifensive behavior (paw-licking) after plantar injection” value [8] was “nociception-like response”, the “[Ca2+]i response of DRG neurons from Trpa1−/− mice” value ([9]; Trpa1−/− neurons) was “thoroughly unresponsive” and the “neurons displaying a robust increase in [Ca2+]i” value ([9]; wild-type small-diameter neurons, sequential application of AITC and malathion, 197/451) was ~ 44%. For the same compound, the “nerve fiber damage around the injection site (TEM)” value [10] was “damage of the myelin sheath”, the “activation of hTRPA1 whole-cell currents” value [7] was “activated” and the “action potential firing in WT small-diameter neurons” value ([11]; 100 μM) was “bursts of action potentials”. The “currents in neurons from Trpa1−/− mice” value ([11]; Trpa1−/− neurons, 17/17) was “failed to induce currents”.

With `CN1CCC(=C2c3ccccc3CC(=O)c3sccc32)CC1` [ketotifen] the “effect on TOCP-induced symptoms (OPIDN scores)” value ([2]; hens, 100 mg kg−1 daily by gavage from day 0) was “significantly alleviated” and the IC50 [3] was 5.79 ± 1.18 µM.
